Each structure is given as a SMILES string.

The assay deals with T1, rhuman cathepsin K (Homo sapiens, UniProt P43235).
T1 sequence (P43235 115-329): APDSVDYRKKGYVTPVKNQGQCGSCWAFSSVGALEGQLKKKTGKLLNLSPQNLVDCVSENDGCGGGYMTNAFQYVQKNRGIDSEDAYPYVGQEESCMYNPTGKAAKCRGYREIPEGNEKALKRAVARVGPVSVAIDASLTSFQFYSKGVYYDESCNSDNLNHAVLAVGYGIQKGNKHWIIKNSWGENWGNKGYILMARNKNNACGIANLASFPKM
The assay can be described thus: Assay for identification of Cathepsin K inhibitors (QFRET, cleavage of Z-Phe-Arg-AMC). Type of assay: biochemical. The note with it: 0.5 nM rhuman cathepsin K, Z-Phe-Arg-AMC substrate, 30 min pre-incubation, 1 h incubation at room temperature; mean of two separate occasions; read-out: CatK FRET Mean pIC50 (converted). As to the method:
0.5 nM [final] rhuman cathepsin K in phosphate buffer was added to a 384-well black microtitre plate containing investigative compounds. The enzyme and compound were pre-incubated at room temperature for 30 minutes before the addition of […] [final] Z-Phe-Arg-AMC synthetic substrate in phosphate buffer. The plates were covered and incubated for 1 h at room temperature, protected from light. Following the incubation the reaction was stopped with 7.5% [final]acetic acid. Relative fluorescence was measured using the Ultra plate reader at a wavelength of 360 nm excitation and 425 nm emission.
Data was corrected for background fluorescence (minimum controls without enzyme).
In the case of `N#CC1(NC(=O)[C@@H]2CCCC[C@H]2C(=O)N2CCc3[nH]c4c(OC(F)(F)F)cccc4c3C2)CC1` [Example 24, (1R,2R)-N-(1-cyanocyclopropyl)-2-{[6-(trifluoromethoxy)-1,3,4,5-tetrahydro-2H-pyrido[4,3-b]indol-2-yl]carbonyl}cyclohexanecarboxamide], the IC50 is 1.88 nM. The same measure for `CCOc1cccc2c3c([nH]c12)CCN(C(=O)[C@@H]1CCCC[C@H]1C(=O)NC1(C#N)CC1)C3` [Example 25, (1R,2R)-N-(1-cyanocyclopropyl)-2-[(6-ethoxy-1,3,4,5-tetrahydro-2H-pyrido[4,3-b]indol-2-yl)carbonyl]cyclohexanecarboxamide]: 0.899 nM; for `COC(=O)Cn1c2c(c3ccccc31)CN(C(=O)[C@@H]1CCCC[C@H]1C(=O)NC1(C#N)CC1)CC2` [Example 26, (1R,2R)-N-(1-cyanocyclopropyl)-2-[(5-methoxycarbonylmethyl-1,3,4,5-tetrahydro-2H-pyrido[4,3-b]indol-2-yl)carbonyl]cyclohexanecarboxamide]: 2.85 nM; for `N#CC1(NC(=O)[C@@H]2CCCC[C@H]2C(=O)N2CCc3c(c4ccccc4n3CC3CC3)C2)CC1` [Example 28, (1R,2R)-N-(1-cyanocyclopropyl)-2-[(5-cyclopropylmethyl-1,3,4,5-tetrahydro-2H-pyrido[4,3-b]indol-2-yl)carbonyl]cyclohexanecarboxamide]: 3.45 nM. Take `COCCn1c2c(c3ccccc31)CN(C(=O)[C@@H]1CCCC[C@H]1C(=O)NC1(C#N)CC1)CC2` [Example 29, (1R,2R)-N-(1-cyanocyclopropyl)-2-[(5-methoxyethyl-1,3,4,5-tetrahydro-2H-pyrido[4,3-b]indol-2-yl)carbonyl]cyclohexanecarboxamide]: the IC50 was 3.89 nM. In the case of `N#CC1(NC(=O)[C@@H]2CCCC[C@H]2C(=O)N2CCc3[nH]c4c(C(F)(F)F)cccc4c3C2)CC1` [Example 30, (1R,2R)-N-(1-cyanocyclopropyl)-2-{[6-(trifluoromethyl)-1,3,4,5-tetrahydro-2H-pyrido[4,3-b]indol-2-yl]carbonyl}cyclohexanecarboxamide], the IC50 is 5.5 nM. In the case of `CS(=O)(=O)c1cccc2c3c([nH]c12)CCN(C(=O)[C@@H]1CCCC[C@H]1C(=O)NC1(C#N)CC1)C3` [Example 31, (1R,2R)-N-(1-cyanocyclopropyl)-2-{[6-(methylsulfonyl)-1,3,4,5-tetrahydro-2H-pyrido[4,3-b]indol-2-yl]carbonyl}cyclohexanecarboxamide], the IC50 was 17.4 nM.

Take `N#CC1(NC(=O)[C@@H]2CCCC[C@H]2C(=O)N2CCc3[nH]c4c(OCc5ccccc5)cccc4c3C2)CC1` [Example 32, (1R,2R)-2-{[6-(benzyloxy)-1,3,4,5-tetrahydro-2H-pyrido[4,3-b]indol-2-yl]carbonyl}-N-(1-cyanocyclopropyl)cyclohexanecarboxamide]: the IC50 is 1 nM. The same measure for `N#CC1(NC(=O)[C@@H]2CCCC[C@H]2C(=O)N2CCc3[nH]c4c(O)cccc4c3C2)CC1` [Example 33, (1R,2R)-N-(1-cyanocyclopropyl)-2-[(6-hydroxy-1,3,4,5-tetrahydro-2H-pyrido[4,3-b]indol-2-yl)carbonyl]cyclohexanecarboxamide]: 1.03 nM. The same measure for `CCCOc1cccc2c3c([nH]c12)CCN(C(=O)[C@@H]1CCCC[C@H]1C(=O)NC1(C#N)CC1)C3` [Example 34, (1R,2R)-N-(1-cyanocyclopropyl)-2-[(6-propoxy-1,3,4,5-tetrahydro-2H-pyrido[4,3-b]indol-2-yl)carbonyl]cyclohexanecarboxamide]: 0.486 nM; for `N#CCOc1cccc2c3c([nH]c12)CCN(C(=O)[C@@H]1CCCC[C@H]1C(=O)NC1(C#N)CC1)C3` [Example 35, (1R,2R)-N-(1-cyanocyclopropyl)-2-{[6-(cyanomethoxy)-1,3,4,5-tetrahydro-2H-pyrido[4,3-b]indol-2-yl]carbonyl}cyclohexanecarboxamide]: 0.558 nM.
